3 molecules from patent US10758516B2, “Methods and compositions for the treatment of gliomas” (University of Cincinnati, priority 2017, dated 2020) can be followed below.

In assay [1] the target is T1, EP2 receptor (Homo sapiens, UniProt P43116).
T1 construct: endogenous in cells; host or cells: SF767 human glioblastoma cells
Kind of assay: PGE2-mediated cAMP signaling in SF767 glioma cells. Format: cell-based. The settings on record: for PGE2-promoted cAMP synthesis: antagonist 1 μM and 10 μM, n=5. An excerpt:
(§1) FIG. 1. Bar graph showing PGE2 mediated cAMP signaling via EP2 receptor in human malignant glioma cells LN229 (top) and SF767 (bottom).
(§2) (n=5, *P<0.05; ***P<0.001, one-way ANOVA and post-hoc Bonferroni test). Data are shown as mean+SEM.

Assay [2] deals with T1, EP2 receptor. Kind of assay: PGE2-mediated cAMP signaling in LN229 glioma cells. Format: cell-based. The conditions noted are these: for PGE2-promoted cAMP synthesis: antagonist 1 μM and 10 μM, n=5.
Description: as §1, §2

A further assay concerns GBM cells LN229. Kind of assay: Wound closure (migration) of COX-2-overexpressing LN229 cells. The settings on record: 10 μM, n=3, compared with COX-2 overexpression group. Format: cell-based, human.
The next assay deals with human GBM cells SF767. In words: Cell invasion of COX-2-overexpressing SF767 cells. Format: cell-based. The settings on record: 10 μM, measured after 48 h, n=4, P<0.01 vs control.
Assay [3] relates to flank tumors formed by human GBM cells SF767. In words: Flank (subcutaneous) tumor xenograft in athymic nude mice. The format is in vivo. The conditions noted are these: 10 mg/kg, p.o., b.i.d.; measured 4 weeks after xenograft surgery; n=7, P<0.05. An excerpt:
FIG. 4. Bar graph comparing flank tumor size in athymic nude mice treated with vehicle versus mice treated with TG6-10-1 measured 4 weeks after xenograft surgery.
Data are shown as mean+SEM.

The subject of assay [4] is intracranial tumors formed by human GBM cells LN229. Kind of assay: Intracranial (orthotopic) tumor xenograft in athymic nude mice. Format: in vivo. The source says:
FIG. 8. Graph showing that the survival rate of mice harboring intracranial tumors derived from human GBM cells LN229 receiving TG6-10-1 is greater than the survival rate of mice receiving vehicle only.
Data are shown as mean±SEM.
Survival rates of mice that harbored intracranial tumors derived from human GBM cells LN229 after receiving vehicle (n=20) or TG6-10-1 (n=28) for 28 days (P=2.835E-4 Kaplan-Meier survival analysis with post-hoc log-rank test).

Setting [5] is: concentration-dependent, forskolin 100 μM.

T1 sequence (P43116 whole entry): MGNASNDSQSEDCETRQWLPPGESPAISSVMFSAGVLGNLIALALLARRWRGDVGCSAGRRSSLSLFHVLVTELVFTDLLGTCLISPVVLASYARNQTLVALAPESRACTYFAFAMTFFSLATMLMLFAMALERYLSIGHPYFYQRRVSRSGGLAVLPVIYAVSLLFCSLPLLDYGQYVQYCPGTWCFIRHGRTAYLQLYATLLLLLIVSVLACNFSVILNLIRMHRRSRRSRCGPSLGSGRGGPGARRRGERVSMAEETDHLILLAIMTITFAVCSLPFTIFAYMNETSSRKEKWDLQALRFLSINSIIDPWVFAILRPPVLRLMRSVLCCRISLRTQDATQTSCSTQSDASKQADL

As to `CCCCC[C@H](O)/C=C/[C@H]1[C@H](O)CC(=O)[C@@H]1C/C=C\CCCC(=O)O` [PGE2, Prostaglandin E2, reference compound], the cAMP levels result on EP2 receptor [1] (setting [5]) and on EP2 receptor [2] (setting [5]) was “increases cAMP levels” each time.
With `COc1cc(/C=C/C(=O)NCCn2c(C)cc3ccccc32)cc(OC)c1OC` [TG4-155], the “wound closure increased by COX-2 overexpression” value in the assay with GBM cells LN229 is “attenuated”. In the assay on human GBM cells SF767, the “cell invasion increased by COX-2 overexpression” value is “attenuated”. Further, the “PGE2-promoted cAMP synthesis” value at EP2 receptor [1] and at EP2 receptor [2] was “largely blocked” throughout.
Consider `COc1cc(/C=C/C(=O)NCCn2c(C(F)(F)F)cc3ccccc32)cc(OC)c1OC` [TG6-10-1], for which, in assay [3], the “growth of flank tumors” value is recorded as “reduced the growth”. The “wound closure increased by COX-2 overexpression” value in the assay with GBM cells LN229 was “attenuated”. Moreover, the “cell invasion increased by COX-2 overexpression” value in the assay with human GBM cells SF767 was “attenuated”. The “PGE2-promoted cAMP synthesis” value on EP2 receptor [1] and on EP2 receptor [2] was “largely blocked” each time. In assay [4] (10 mg/kg, p.o., b.i.d., bioluminescence weekly, n=7, P<0.01), the “growth of intracranial tumors” value is “reduced the growth”. Besides, the “survival of mice harboring intracranial tumors” value in assay [4] (treatment for 28 days, vehicle n=20, TG6-10-1 n=28, P=2.835E-4, Kaplan-Meier, log-rank) is “improved survival”.
